Values of other authors in patent US4599352A, “Antineoplastic platinum (IV) complexes and compositions” (priority 1984, dated 1986).

Columns and labels:
leukemia L1210 = details: cited from earlier work
[1] = test system: sarcoma-180, ascites form; details: cited from earlier work

| Structure (SMILES) | Antitumor activity ranking (leukemia L1210) | Antitumor efficacy ranking [1] |
| --- | --- | --- |
| NC1CCCCC1N.[Cl-].[Cl-].[Pt+2] (stereo not drawn) [Cis-dichloro-cis-1,2-cyclohexanediamine platinum (II)] | least active | more efficacious than the corresponding trans isomers |
| [Cl][Pt]1([Cl])[NH]C2CCCCC2[NH]1 (single isomer, unassigned) [dichloro (1,2-diaminocyclohexane) platinum (II) complex trans (d) isomer] | intermediate activity | – |
| [Cl][Pt]1([Cl])[NH]C2CCCCC2[NH]1 (single isomer, unassigned) [dichloro (1,2-diaminocyclohexane) platinum (II) complex trans (1) isomer] | highest activity | – |
